Tested on: multi-resistant K1 Plasmodium falciparum strain
Test: in vitro antiplasmodial activity, K1 strain (Table 1)
Type: cell-based
Details: P. falciparum K1 strain; highest tested concentration 10 µM; read-out: IC50 P fK1

SMILES | IC50 [µM]
O=S(=O)(Nc1nc(C(Cl)(Cl)Cl)nc2ccccc12)c1ccc2ccccc2c1 [8q, N-(2-trichloromethylquinazolin-4-yl)naphtalene-2-sulfonamide] | > 10
O=S(=O)(Nc1nc(C(Cl)(Cl)Cl)nc2ccccc12)c1cccc2ccccc12 [8r, N-(2-trichloromethylquinazolin-4-yl)naphtalene-1-sulfonamide] | > 10

Same assay, conditions: Plasmodium falciparum, K1, read-out: IC50 P fK1

SMILES | IC50 [µM]
CCN(CC)CCCC(C)Nc1ccnc2cc(Cl)ccc12 (stereo not shown) [Chloroquine, reference compound] | 0.6

Same assay, conditions: Plasmodium falciparum; P. falciparum K1 strain; highest tested concentration 10 µM; read-out: IC50 P fK1

SMILES | IC50 [µM]
O=S(=O)(Nc1nc(C(Cl)(Cl)Cl)nc2ccccc12)c1ccccc1 [8a, N-(2-Trichloromethylquinazolin-4-yl)benzenesulfonamide] | > 10
Cc1ccc(S(=O)(=O)Nc2nc(C(Cl)(Cl)Cl)nc3ccccc23)cc1 [8b, 4-Methyl-N-(2-trichloromethylquinazolin-4-yl)benzenesulfonamide] | > 10
COc1ccc(S(=O)(=O)Nc2nc(C(Cl)(Cl)Cl)nc3ccccc23)cc1 [8c, 4-Methoxy-N-(2-trichloromethylquinazolin-4-yl)benzenesulfonamide] | > 10
N#Cc1ccc(S(=O)(=O)Nc2nc(C(Cl)(Cl)Cl)nc3ccccc23)cc1 [8d, 4-Cyano-N-(2-trichloromethylquinazolin-4-yl)benzenesulfonamide] | > 10
O=S(=O)(Nc1nc(C(Cl)(Cl)Cl)nc2ccccc12)c1ccc(Cl)cc1 [8e, 4-Chloro-N-(2-trichloromethylquinazolin-4-yl)benzenesulfonamide] | > 10
O=S(=O)(Nc1nc(C(Cl)(Cl)Cl)nc2ccccc12)c1ccc(Br)cc1 [8f, 4-Bromo-N-(2-trichloromethylquinazolin-4-yl)benzenesulfonamide] | > 10
O=S(=O)(Nc1nc(C(Cl)(Cl)Cl)nc2ccccc12)c1ccc(F)cc1 [8g, 4-Fluoro-N-(2-trichloromethylquinazolin-4-yl)benzenesulfonamide] | > 10
O=S(=O)(Nc1nc(C(Cl)(Cl)Cl)nc2ccccc12)c1cccc(F)c1 [8h, 3-Fluoro-N-(2-trichloromethylquinazolin-4-yl)benzenesulfonamide] | > 10
O=S(=O)(Nc1nc(C(Cl)(Cl)Cl)nc2ccccc12)c1ccccc1F [8i, 2-Fluoro-N-(2-trichloromethylquinazolin-4-yl)benzenesulfonamide] | > 10
O=[N+]([O-])c1ccc(S(=O)(=O)Nc2nc(C(Cl)(Cl)Cl)nc3ccccc23)cc1 [8j, 4-Nitro-N-(2-trichloromethylquinazolin-4-yl)benzenesulfonamide] | > 10
O=[N+]([O-])c1cccc(S(=O)(=O)Nc2nc(C(Cl)(Cl)Cl)nc3ccccc23)c1 [8k, 3-Nitro-N-(2-trichloromethylquinazolin-4-yl)benzenesulfonamide] | > 10
O=[N+]([O-])c1ccccc1S(=O)(=O)Nc1nc(C(Cl)(Cl)Cl)nc2ccccc12 [8l, 2-Nitro-N-(2-trichloromethylquinazolin-4-yl)benzenesulfonamide] | > 10
O=S(=O)(Nc1nc(C(Cl)(Cl)Cl)nc2ccccc12)c1ccc(C(F)(F)F)cc1 [8m, N-(2-trichloromethylquinazolin-4-yl)-4-(trifluoromethyl)benzenesulfonamide] | > 10
O=S(=O)(Nc1nc(C(Cl)(Cl)Cl)nc2ccccc12)c1cccc(C(F)(F)F)c1 [8n, N-(2-trichloromethylquinazolin-4-yl)-3-(trifluoromethyl)benzenesulfonamide] | > 10
O=S(=O)(Nc1nc(C(Cl)(Cl)Cl)nc2ccccc12)c1ccccc1C(F)(F)F [8o, N-(2-trichloromethylquinazolin-4-yl)-2-(trifluoromethyl)benzenesulfonamide] | > 10
O=S(=O)(Nc1nc(C(Cl)(Cl)Cl)nc2ccccc12)c1ccc(-c2ccccc2)cc1 [8p, N-(2-trichloromethylquinazolin-4-yl)biphenyl-4-sulfonamide] | > 10
O=S(=O)(Nc1nc(C(Cl)(Cl)Cl)nc2ccccc12)c1cccs1 [8s, N-(2-trichloromethylquinazolin-4-yl)thiophene-2-sulfonamide] | > 10
CS(=O)(=O)Nc1nc(C(Cl)(Cl)Cl)nc2ccccc12 [8t, N-(2-trichloromethylquinazolin-4-yl)methanesulfonamide] | > 10
C[C@H]1c2cccc(O)c2C(=O)C2=C(O)[C@]3(O)C(=O)C(C(N)=O)=C(O)[C@@H](N(C)C)[C@@H]3[C@@H](O)[C@@H]21 [Doxycycline, reference compound] | 6

Tested on: multi-resistant W2 or K1 Plasmodium falciparum strains
Test: in vitro antiplasmodial activity, 2-trichloromethylquinazoline series (Table 2)
Type: cell-based
Details: Plasmodium falciparum, read-out: IC50 P. falc.

SMILES | IC50 [µM]
CCN(CC)CCCC(C)Nc1ccnc2cc(Cl)ccc12 (stereo not shown) [Chloroquine, reference compound] | 0.6

Same assay, conditions: Plasmodium falciparum; Table 2; sulfonamide series and reference drugs; read-out: IC50 P. falc.

SMILES | IC50 [µM]
C[C@H]1c2cccc(O)c2C(=O)C2=C(O)[C@]3(O)C(=O)C(C(N)=O)=C(O)[C@@H](N(C)C)[C@@H]3[C@@H](O)[C@@H]21 [Doxycycline, reference compound] | 6

Same assay, conditions: SI = CC50/IC50; previously synthesized series (Table 2, entries 1-4)

SMILES | SI (selectivity index)
Fc1ccc(-c2nc(C(Cl)(Cl)Cl)nc3ccccc23)cc1 [C00001] | >50

Tested on: not given
Test: not given
Details: not given

SMILES | melting point [°C]
O=S(=O)(Nc1nc(C(Cl)(Cl)Cl)nc2ccccc12)c1ccccc1 [8a, N-(2-Trichloromethylquinazolin-4-yl)benzenesulfonamide] | 200
Cc1ccc(S(=O)(=O)Nc2nc(C(Cl)(Cl)Cl)nc3ccccc23)cc1 [8b, 4-Methyl-N-(2-trichloromethylquinazolin-4-yl)benzenesulfonamide] | > 260
COc1ccc(S(=O)(=O)Nc2nc(C(Cl)(Cl)Cl)nc3ccccc23)cc1 [8c, 4-Methoxy-N-(2-trichloromethylquinazolin-4-yl)benzenesulfonamide] | 196
N#Cc1ccc(S(=O)(=O)Nc2nc(C(Cl)(Cl)Cl)nc3ccccc23)cc1 [8d, 4-Cyano-N-(2-trichloromethylquinazolin-4-yl)benzenesulfonamide] | 204
O=S(=O)(Nc1nc(C(Cl)(Cl)Cl)nc2ccccc12)c1ccc(Cl)cc1 [8e, 4-Chloro-N-(2-trichloromethylquinazolin-4-yl)benzenesulfonamide] | > 260
O=S(=O)(Nc1nc(C(Cl)(Cl)Cl)nc2ccccc12)c1ccc(Br)cc1 [8f, 4-Bromo-N-(2-trichloromethylquinazolin-4-yl)benzenesulfonamide] | > 260
O=S(=O)(Nc1nc(C(Cl)(Cl)Cl)nc2ccccc12)c1ccc(F)cc1 [8g, 4-Fluoro-N-(2-trichloromethylquinazolin-4-yl)benzenesulfonamide] | > 260
O=S(=O)(Nc1nc(C(Cl)(Cl)Cl)nc2ccccc12)c1cccc(F)c1 [8h, 3-Fluoro-N-(2-trichloromethylquinazolin-4-yl)benzenesulfonamide] | 194
O=S(=O)(Nc1nc(C(Cl)(Cl)Cl)nc2ccccc12)c1ccccc1F [8i, 2-Fluoro-N-(2-trichloromethylquinazolin-4-yl)benzenesulfonamide] | 188
O=[N+]([O-])c1ccc(S(=O)(=O)Nc2nc(C(Cl)(Cl)Cl)nc3ccccc23)cc1 [8j, 4-Nitro-N-(2-trichloromethylquinazolin-4-yl)benzenesulfonamide] | 250
O=[N+]([O-])c1cccc(S(=O)(=O)Nc2nc(C(Cl)(Cl)Cl)nc3ccccc23)c1 [8k, 3-Nitro-N-(2-trichloromethylquinazolin-4-yl)benzenesulfonamide] | 204
O=[N+]([O-])c1ccccc1S(=O)(=O)Nc1nc(C(Cl)(Cl)Cl)nc2ccccc12 [8l, 2-Nitro-N-(2-trichloromethylquinazolin-4-yl)benzenesulfonamide] | > 260
O=S(=O)(Nc1nc(C(Cl)(Cl)Cl)nc2ccccc12)c1ccc(C(F)(F)F)cc1 [8m, N-(2-trichloromethylquinazolin-4-yl)-4-(trifluoromethyl)benzenesulfonamide] | 166
O=S(=O)(Nc1nc(C(Cl)(Cl)Cl)nc2ccccc12)c1cccc(C(F)(F)F)c1 [8n, N-(2-trichloromethylquinazolin-4-yl)-3-(trifluoromethyl)benzenesulfonamide] | 255
O=S(=O)(Nc1nc(C(Cl)(Cl)Cl)nc2ccccc12)c1ccccc1C(F)(F)F [8o, N-(2-trichloromethylquinazolin-4-yl)-2-(trifluoromethyl)benzenesulfonamide] | 205
O=S(=O)(Nc1nc(C(Cl)(Cl)Cl)nc2ccccc12)c1ccc(-c2ccccc2)cc1 [8p, N-(2-trichloromethylquinazolin-4-yl)biphenyl-4-sulfonamide] | 210
O=S(=O)(Nc1nc(C(Cl)(Cl)Cl)nc2ccccc12)c1cccs1 [8s, N-(2-trichloromethylquinazolin-4-yl)thiophene-2-sulfonamide] | 191
CS(=O)(=O)Nc1nc(C(Cl)(Cl)Cl)nc2ccccc12 [8t, N-(2-trichloromethylquinazolin-4-yl)methanesulfonamide] | 186

Tested on: human HepG2 cell line
Test: not given
Details: not given

SMILES | CC50 [µM]
O=S(=O)(Nc1nc(C(Cl)(Cl)Cl)nc2ccccc12)c1ccc2ccccc2c1 [8q, N-(2-trichloromethylquinazolin-4-yl)naphtalene-2-sulfonamide] | 48.8
O=S(=O)(Nc1nc(C(Cl)(Cl)Cl)nc2ccccc12)c1cccc2ccccc12 [8r, N-(2-trichloromethylquinazolin-4-yl)naphtalene-1-sulfonamide] | 47.8

Tested on: human HepG2 cell line
Test: not given
Design: method as in PMID 17981462, PMID 19482476, PMID 19926173, PMID 21741131, PMID 21852132
Details: previously synthesized series (Table 2, entries 1-4); cited from earlier work

SMILES | CC50 [µM]
Fc1ccc(-c2nc(C(Cl)(Cl)Cl)nc3ccccc23)cc1 [C00001] | > 125

Tested on: multi-resistant W2 or K1 Plasmodium falciparum strains
Test: not given
Design: method as in PMID 17981462, PMID 19482476, PMID 19926173, PMID 21741131, PMID 21852132
Details: previously synthesized series (Table 2, entries 1-4); W2 or K1 strain; read-out: IC50 P. falc.; cited from earlier work

SMILES | IC50 [µM]
Fc1ccc(-c2nc(C(Cl)(Cl)Cl)nc3ccccc23)cc1 [C00001] | 2.5

Tested on: not listed separately
Test: in vitro
Details: human

SMILES | CC50 [µM]
COc1cccc2c1C(=O)c1c(O)c3c(c(O)c1C2=O)C[C@@](O)(C(=O)CO)C[C@@H]3O[C@H]1C[C@H](N)[C@H](O)[C@H](C)O1 [Doxorubicine] | 0.2

Tested on: not listed separately
Test: cytotoxicity toward the human HepG2 cell line (CC50)
Details: HepG2 cells

SMILES | CC50 [µM]
O=S(=O)(Nc1nc(C(Cl)(Cl)Cl)nc2ccccc12)c1ccccc1 [8a, N-(2-Trichloromethylquinazolin-4-yl)benzenesulfonamide] | 82
Cc1ccc(S(=O)(=O)Nc2nc(C(Cl)(Cl)Cl)nc3ccccc23)cc1 [8b, 4-Methyl-N-(2-trichloromethylquinazolin-4-yl)benzenesulfonamide] | 68.7
COc1ccc(S(=O)(=O)Nc2nc(C(Cl)(Cl)Cl)nc3ccccc23)cc1 [8c, 4-Methoxy-N-(2-trichloromethylquinazolin-4-yl)benzenesulfonamide] | 102
N#Cc1ccc(S(=O)(=O)Nc2nc(C(Cl)(Cl)Cl)nc3ccccc23)cc1 [8d, 4-Cyano-N-(2-trichloromethylquinazolin-4-yl)benzenesulfonamide] | 73.8
O=S(=O)(Nc1nc(C(Cl)(Cl)Cl)nc2ccccc12)c1ccc(Cl)cc1 [8e, 4-Chloro-N-(2-trichloromethylquinazolin-4-yl)benzenesulfonamide] | 71.1
O=S(=O)(Nc1nc(C(Cl)(Cl)Cl)nc2ccccc12)c1ccc(Br)cc1 [8f, 4-Bromo-N-(2-trichloromethylquinazolin-4-yl)benzenesulfonamide] | 57.4
O=S(=O)(Nc1nc(C(Cl)(Cl)Cl)nc2ccccc12)c1ccc(F)cc1 [8g, 4-Fluoro-N-(2-trichloromethylquinazolin-4-yl)benzenesulfonamide] | 69.5
O=S(=O)(Nc1nc(C(Cl)(Cl)Cl)nc2ccccc12)c1cccc(F)c1 [8h, 3-Fluoro-N-(2-trichloromethylquinazolin-4-yl)benzenesulfonamide] | 106
O=S(=O)(Nc1nc(C(Cl)(Cl)Cl)nc2ccccc12)c1ccccc1F [8i, 2-Fluoro-N-(2-trichloromethylquinazolin-4-yl)benzenesulfonamide] | 136
O=[N+]([O-])c1ccc(S(=O)(=O)Nc2nc(C(Cl)(Cl)Cl)nc3ccccc23)cc1 [8j, 4-Nitro-N-(2-trichloromethylquinazolin-4-yl)benzenesulfonamide] | 88.3
O=[N+]([O-])c1cccc(S(=O)(=O)Nc2nc(C(Cl)(Cl)Cl)nc3ccccc23)c1 [8k, 3-Nitro-N-(2-trichloromethylquinazolin-4-yl)benzenesulfonamide] | 120
O=[N+]([O-])c1ccccc1S(=O)(=O)Nc1nc(C(Cl)(Cl)Cl)nc2ccccc12 [8l, 2-Nitro-N-(2-trichloromethylquinazolin-4-yl)benzenesulfonamide] | 126
O=S(=O)(Nc1nc(C(Cl)(Cl)Cl)nc2ccccc12)c1ccc(C(F)(F)F)cc1 [8m, N-(2-trichloromethylquinazolin-4-yl)-4-(trifluoromethyl)benzenesulfonamide] | 49
O=S(=O)(Nc1nc(C(Cl)(Cl)Cl)nc2ccccc12)c1cccc(C(F)(F)F)c1 [8n, N-(2-trichloromethylquinazolin-4-yl)-3-(trifluoromethyl)benzenesulfonamide] | 75.1
O=S(=O)(Nc1nc(C(Cl)(Cl)Cl)nc2ccccc12)c1ccccc1C(F)(F)F [8o, N-(2-trichloromethylquinazolin-4-yl)-2-(trifluoromethyl)benzenesulfonamide] | 73.8
O=S(=O)(Nc1nc(C(Cl)(Cl)Cl)nc2ccccc12)c1ccc(-c2ccccc2)cc1 [8p, N-(2-trichloromethylquinazolin-4-yl)biphenyl-4-sulfonamide] | 38.2
O=S(=O)(Nc1nc(C(Cl)(Cl)Cl)nc2ccccc12)c1cccs1 [8s, N-(2-trichloromethylquinazolin-4-yl)thiophene-2-sulfonamide] | 121
CS(=O)(=O)Nc1nc(C(Cl)(Cl)Cl)nc2ccccc12 [8t, N-(2-trichloromethylquinazolin-4-yl)methanesulfonamide] | 241
C[C@H]1c2cccc(O)c2C(=O)C2=C(O)[C@]3(O)C(=O)C(C(N)=O)=C(O)[C@@H](N(C)C)[C@@H]3[C@@H](O)[C@@H]21 [Doxycycline, reference compound] | 20

Reference: publication PMC6269066, “A New Synthetic Route to Original Sulfonamide Derivatives in 2-Trichloromethylquinazoline Series: A Structure-Activity Relationship Study of Antiplasmodial Activity” (Molecules, 2012)
